Source: ChEMBL document CHEMBL3885881, “DrugMatrix”

Species: Rattus norvegicus
Experiment: DrugMatrix - Regimen: Daily Repeat
Assay type: toxicity, organism-based, Sprague-Dawley
Parameters: regimen Daily Repeat, gender Male, age 6-8 weeks
Conditions: in vivo, po, route oral GAVAGE, vehicle .5 % CMC; for ABSOLUTE BASOPHIL / ABSOLUTE EOSINOPHIL / ABSOLUTE LYMPHOCYTE / ABSOLUTE MONOCYTE / ABSOLUTE SEGMENTED NEUTROPHIL / BASOPHIL / EOSINOPHIL / ERYTHROCYTE COUNT / HEMATOCRIT / HEMOGLOBIN / LEUKOCYTE COUNT / LYMPHOCYTE / MEAN CORPUSCULAR HEMOGLOBIN / MEAN CORPUSCULAR HEMOGLOBIN CONCENTRATION / MEAN CORPUSCULAR VOLUME / MONOCYTE / NEUTROPHIL / NUCLEATED RED BLOOD CELLS / PLATELET COUNT: tissue Blood; for ALANINE AMINOTRANSFERASE / ALBUMIN / ALKALINE PHOSPHATASE / ASPARTATE AMINOTRANSFERASE / BLOOD UREA NITROGEN / CARBON DIOXIDE / CHOLESTEROL / CREATINE PHOSPHOKINASE / CREATININE / GLUCOSE / LACTATE DEHYDROGENASE / LIPASE / PHOSPHORUS / SODIUM / TOTAL BILIRUBIN / TOTAL PROTEIN / URIC ACID: tissue Plasma
[1] = 15 mg/kg, 72 h, dose level Low, time 3 day
[2] = 15 mg/kg, 120 h, dose level Low, time 5 day
[3] = 750 mg/kg, 72 h, dose level High, time 3 day
[4] = 750 mg/kg, 120 h, dose level High, time 5 day

In the case of `CC(C)(C)c1ccc(C(O)CCCN2CCC(C(O)(c3ccccc3)c3ccccc3)CC2)cc1` (centres undefined) [TERFENADINE], the “ABSOLUTE BASOPHIL” value [1] is reported as 0 CELLS/uL, the “ABSOLUTE EOSINOPHIL” value [1] is reported as 0 CELLS/uL and the “ABSOLUTE LYMPHOCYTE” value [1] is reported as 10879.67 CELLS/uL. For the same molecule, the “ABSOLUTE MONOCYTE” value [1] was 121.67 CELLS/uL, the “ABSOLUTE SEGMENTED NEUTROPHIL” value [1] was 1165.33 CELLS/uL and the BASOPHIL [1] was 0%. For the same molecule, the EOSINOPHIL [1] was 0%, the “ERYTHROCYTE COUNT” value [1] was 5.45 x10E6/uL and the HEMATOCRIT [1] was 33.93%. The HEMOGLOBIN [1] was 12.77 G/DL, the “LEUKOCYTE COUNT” value [1] was 12.17 x10E3/uL and the LYMPHOCYTE [1] was 89.33%. The “MEAN CORPUSCULAR HEMOGLOBIN” value [1] was 23.43 pg, the “MEAN CORPUSCULAR HEMOGLOBIN CONCENTRATION” value [1] was 37.63 G/DL and the “MEAN CORPUSCULAR VOLUME” value [1] was 62.27 fL. For the same molecule, the MONOCYTE [1] was 1%, the NEUTROPHIL [1] was 9.67% and the “NUCLEATED RED BLOOD CELLS” value [1] was 0 /100WBC. For the same molecule, the “PLATELET COUNT” value [1] was 1158.33 x10E3/uL, the “ALANINE AMINOTRANSFERASE” value [1] was 52.67 u/L and the ALBUMIN [1] was 4.13 G/DL. The “ALKALINE PHOSPHATASE” value [1] was 451 u/L, the “ASPARTATE AMINOTRANSFERASE” value [1] was 72 u/L and the “BLOOD UREA NITROGEN” value [1] was 16.67 mg/dL. For the same molecule, the “CARBON DIOXIDE” value [1] was 22.67 mmol/L, the CHOLESTEROL [1] was 70 mg/dL and the “CREATINE PHOSPHOKINASE” value [1] was 139.33 u/L. For the same molecule, the CREATININE [1] was 0.18 mg/dL, the GLUCOSE [1] was 155.33 mg/dL and the “LACTATE DEHYDROGENASE” value [1] was 130.33 u/L. The LIPASE [1] was 10.67 u/L, the PHOSPHORUS [1] was 13.47 mg/dL and the SODIUM [1] was 145.6 MEQ/L. The “TOTAL BILIRUBIN” value [1] was 0.17 mg/dL, the “TOTAL PROTEIN” value [1] was 6.1 G/DL and the “URIC ACID” value [1] was 1.37 mg/dL. For the same molecule, the “ABSOLUTE BASOPHIL” value [2] was 0 CELLS/uL, the “ABSOLUTE EOSINOPHIL” value [2] was 0 CELLS/uL and the “ABSOLUTE LYMPHOCYTE” value [2] was 14283 CELLS/uL. The “ABSOLUTE MONOCYTE” value [2] was 352.67 CELLS/uL, the “ABSOLUTE SEGMENTED NEUTROPHIL” value [2] was 1897.67 CELLS/uL and the BASOPHIL [2] was 0%. The EOSINOPHIL [2] was 0%, the “ERYTHROCYTE COUNT” value [2] was 5.72 x10E6/uL and the HEMATOCRIT [2] was 34.8%. The HEMOGLOBIN [2] was 13.17 G/DL, the “LEUKOCYTE COUNT” value [2] was 16.53 x10E3/uL and the LYMPHOCYTE [2] was 86.67%. The “MEAN CORPUSCULAR HEMOGLOBIN” value [2] was 23.03 pg, the “MEAN CORPUSCULAR HEMOGLOBIN CONCENTRATION” value [2] was 37.83 G/DL and the “MEAN CORPUSCULAR VOLUME” value [2] was 60.87 fL. For the same molecule, the MONOCYTE [2] was 2%, the NEUTROPHIL [2] was 11.33% and the “NUCLEATED RED BLOOD CELLS” value [2] was 0 /100WBC. The “PLATELET COUNT” value [2] was 993 x10E3/uL, the “ALANINE AMINOTRANSFERASE” value [2] was 51.33 u/L and the ALBUMIN [2] was 4.13 G/DL. For the same molecule, the “ALKALINE PHOSPHATASE” value [2] was 285 u/L, the “ASPARTATE AMINOTRANSFERASE” value [2] was 91.33 u/L and the “BLOOD UREA NITROGEN” value [2] was 16 mg/dL. For the same molecule, the “CARBON DIOXIDE” value [2] was 26.67 mmol/L, the CHOLESTEROL [2] was 66.67 mg/dL and the “CREATINE PHOSPHOKINASE” value [2] was 518.33 u/L. For the same molecule, the CREATININE [2] was 0.2 mg/dL, the GLUCOSE [2] was 156 mg/dL and the “LACTATE DEHYDROGENASE” value [2] was 390.67 u/L. For the same molecule, the LIPASE [2] was 10.67 u/L, the PHOSPHORUS [2] was 13.3 mg/dL and the SODIUM [2] was 144.33 MEQ/L. The “TOTAL BILIRUBIN” value [2] was 0.1 mg/dL, the “TOTAL PROTEIN” value [2] was 6 G/DL and the “URIC ACID” value [2] was 1.43 mg/dL. The “ABSOLUTE BASOPHIL” value [3] was 0 CELLS/uL, the “ABSOLUTE EOSINOPHIL” value [3] was 0 CELLS/uL and the “ABSOLUTE LYMPHOCYTE” value [3] was 14273 CELLS/uL. For the same molecule, the “ABSOLUTE MONOCYTE” value [3] was 481.67 CELLS/uL, the “ABSOLUTE SEGMENTED NEUTROPHIL” value [3] was 1312 CELLS/uL and the BASOPHIL [3] was 0%. The EOSINOPHIL [3] was 0%, the “ERYTHROCYTE COUNT” value [3] was 6.18 x10E6/uL and the HEMATOCRIT [3] was 38.5%. For the same molecule, the HEMOGLOBIN [3] was 14.53 G/DL, the “LEUKOCYTE COUNT” value [3] was 16.07 x10E3/uL and the LYMPHOCYTE [3] was 88.67%. For the same molecule, the “MEAN CORPUSCULAR HEMOGLOBIN” value [3] was 23.5 pg, the “MEAN CORPUSCULAR HEMOGLOBIN CONCENTRATION” value [3] was 37.77 G/DL and the “MEAN CORPUSCULAR VOLUME” value [3] was 62.27 fL. The MONOCYTE [3] was 3%, the NEUTROPHIL [3] was 8.33% and the “NUCLEATED RED BLOOD CELLS” value [3] was 0 /100WBC. For the same molecule, the “PLATELET COUNT” value [3] was 1171.33 x10E3/uL, the “ALANINE AMINOTRANSFERASE” value [3] was 99 u/L and the ALBUMIN [3] was 4.33 G/DL. The “ALKALINE PHOSPHATASE” value [3] was 343.33 u/L, the “ASPARTATE AMINOTRANSFERASE” value [3] was 108 u/L and the “BLOOD UREA NITROGEN” value [3] was 13.33 mg/dL. For the same molecule, the “CARBON DIOXIDE” value [3] was 21.33 mmol/L, the CHOLESTEROL [3] was 50 mg/dL and the “CREATINE PHOSPHOKINASE” value [3] was 417.33 u/L. For the same molecule, the CREATININE [3] was 0.18 mg/dL, the GLUCOSE [3] was 144.33 mg/dL and the “LACTATE DEHYDROGENASE” value [3] was 236.33 u/L. The LIPASE [3] was 8.67 u/L, the PHOSPHORUS [3] was 12.17 mg/dL and the SODIUM [3] was 145.77 MEQ/L. The “TOTAL BILIRUBIN” value [3] was 0.23 mg/dL, the “TOTAL PROTEIN” value [3] was 5.97 G/DL and the “URIC ACID” value [3] was 1.57 mg/dL. For the same molecule, the “ABSOLUTE BASOPHIL” value [4] was 0 CELLS/uL, the “ABSOLUTE EOSINOPHIL” value [4] was 72 CELLS/uL and the “ABSOLUTE LYMPHOCYTE” value [4] was 15584.33 CELLS/uL. The “ABSOLUTE MONOCYTE” value [4] was 134.67 CELLS/uL, the “ABSOLUTE SEGMENTED NEUTROPHIL” value [4] was 2309 CELLS/uL and the BASOPHIL [4] was 0%. For the same molecule, the EOSINOPHIL [4] was 0.33%, the “ERYTHROCYTE COUNT” value [4] was 6.8 x10E6/uL and the HEMATOCRIT [4] was 40.3%. The HEMOGLOBIN [4] was 15.4 G/DL, the “LEUKOCYTE COUNT” value [4] was 18.1 x10E3/uL and the LYMPHOCYTE [4] was 86.33%. For the same molecule, the “MEAN CORPUSCULAR HEMOGLOBIN” value [4] was 22.7 pg, the “MEAN CORPUSCULAR HEMOGLOBIN CONCENTRATION” value [4] was 38.23 G/DL and the “MEAN CORPUSCULAR VOLUME” value [4] was 59.33 fL. The MONOCYTE [4] was 0.67%, the NEUTROPHIL [4] was 12.67% and the “NUCLEATED RED BLOOD CELLS” value [4] was 0 /100WBC. The “PLATELET COUNT” value [4] was 1002.67 x10E3/uL, the “ALANINE AMINOTRANSFERASE” value [4] was 124.67 u/L and the ALBUMIN [4] was 4.3 G/DL. The “ALKALINE PHOSPHATASE” value [4] was 360.33 u/L, the “ASPARTATE AMINOTRANSFERASE” value [4] was 104.67 u/L and the “BLOOD UREA NITROGEN” value [4] was 16.67 mg/dL. The “CARBON DIOXIDE” value [4] was 27.67 mmol/L, the CHOLESTEROL [4] was 55.67 mg/dL and the “CREATINE PHOSPHOKINASE” value [4] was 566 u/L. The CREATININE [4] was 0.26 mg/dL, the GLUCOSE [4] was 128 mg/dL and the “LACTATE DEHYDROGENASE” value [4] was 180.33 u/L. For the same molecule, the LIPASE [4] was 9.67 u/L, the PHOSPHORUS [4] was 12.07 mg/dL and the SODIUM [4] was 145.6 MEQ/L. The “TOTAL BILIRUBIN” value [4] was 0.13 mg/dL, the “TOTAL PROTEIN” value [4] was 6.27 G/DL and the “URIC ACID” value [4] was 1.9 mg/dL.
